Data published in US20230404969A1, “COMPOSITIONS AND METHOD FOR EFFECTIVE MANAGEMENT OF PERITONITIS” (priority 2022, published 2023).
Where “and” joins values, the source holds several entries; their conditions need not be identical. Identical values can stand only once.

What was measured:
TNF-α = test: Intracellular TNF-α estimation in LPS activated murine neutrophils (flow cytometry); type: cell-based; conditions: 5 μg/ml, LPS 1 μg/ml, 3 h, ↑ upregulation
Procedure: Flowcytometric studies were carried out to determine the anti-inflammatory effect of active constituents of Withania somnifera extract on TNF-α and IL-1β cytokine expression in LPS activated murine neutrophils.
TNF-α and Interleukin 1 beta (IL-1β) cytokines play a major role in the pathogenesis of septic shock induced by LPS (Lipopolysaccharide) endotoxin injection. LPS is an important triggering factor for in vivo systemic inflammatory response. LPS activates neutrophils via engagement of TLR4 (Toll-like receptor 4), resulting in the induction of a characteristic proinflammatory phenotype and prolongation of cell lifespan. In brief, neutrophils extraction was performed by taking murine blood and centrifuging it at 250 g for 20 min. Middle layer was taken and layered with histopaque and incubated for 10 min. The samples were centrifuged at 700 g, the upper layer was taken and Facs Lysing solution added for the lysis of any traces of RBC. The samples were washed with PBS (200 g) for 10 min. Neutrophils were stimulated with. LPS (1 μg/ml) and incubated with test samples for 3 h, in CO2 incubator. […] A fluorescence trigger was set on the […] parameter of the gated neutrophil populations (10,000 events). Fluorescence compensation, data analysis, and data presentation was performed using Cell Quest Pro software (Beckton—Dickinson Biosciences, CA, USA). […]

IL-6 = test: Cytometric Bead Array of peritoneal fluid, chronic zymosan peritonitis: IL-6; type: in vivo, mouse; conditions: 2 mg/kg, vs Zymosan control
Procedure: (§1) Peritoneal inflammation was induced by Zymosan A (Sigma Chemical) (Masashi et al. Zymosan, but Not Lipopolysaccharide, Triggers Severe and Progressive Peritoneal Injury Accompanied by complement Activation in a Rat Peritonitis Model) was prepared freshly in sterile, 0.9% w/v saline, and 0.5 ml was injected i.p. from day 0 to Day 5. The lymphocyte population in the peripheral blood was determined with a flow cytometer. Cells were phenotyped by flow cytometry with the following primary antibodies: CD4 (FITC) and CD8 (PE). Cells were gated broadly on all live lymphocyte cells, with only debris and multiple cell clusters being excluded. Analysis of mean fluorescence intensity was done and percentage cell population was evaluated. […]
(§2) The Cytometric Bead Array (Mouse Inflammation kit) was used to study cytokines in peritoneal fluid. […] Briefly, a mixture of 6 capture bead populations (50 μl) with distinct fluorescence intensities (detected in FL3) coated with antibodies specific for the above cytokines was mixed with each sample/standard (50 μl). […] Following acquisition of data by two colour cytometric analysis, the sample results were analysed using CBA software (BD Biosciences). […] Individual cytokine concentration ratios were indicated by their fluorescent intensities and was determined by interpolation from the corresponding standard curve.

IL-10 = test: Cytometric Bead Array of peritoneal fluid, chronic zymosan peritonitis: IL-10; type: in vivo, mouse; conditions: 2 mg/kg, vs Zymosan control
Procedure: as §1, §2

gut bacteria = test: Bacterial translocation from the gut into organs: total of study group of 30; type: in vivo; conditions: Withanone 2 mg/kg; positive/30 mice
Procedure: (§3) Peritoneal inflammation was induced by Zymosan A (Sigma Chemical) (Masashi et al. Zymosan, but Not Lipopolysaccharide, Triggers Severe and Progressive Peritoneal Injury Accompanied by complement Activation in a Rat Peritonitis Model) was prepared freshly in sterile, 0.9% w/v saline, and 0.5 ml was injected i.p. from day 0 to Day 5. The lymphocyte population in the peripheral blood was determined with a flow cytometer. Cells were phenotyped by flow cytometry with the following primary antibodies: CD4 (FITC) and CD8 (PE). Cells were gated broadly on all live lymphocyte cells, with only debris and multiple cell clusters being excluded. Analysis of mean fluorescence intensity was done and percentage cell population was evaluated. The test drugs were administered for 30 days after the induction of peritonitis. On 36th day the peritoneal cavity was lavaged with 1.5 ml saline, and after a 30-s gentle manual massage, 0.5 ml exudate was retrieved, centrifuged at 3000 g for 3 min, and frozen at […] prior to cytokine and chemotactic-factor assessment.
Intestine serves as a barrier in preventing gut bacteria and/or endotoxin from spreading to organs and tissues. It is also known that bacterial translocation occurs in critically ill or immunocompromised patients, and the physical disruption of mucosal barrier in vivo rodent models seem to be a key factor Tor translocation (Deitch et al. Effect of hemorrhagic shock on bacterial translocation, intestinal morphology, and intestinal permeability in conventional and antibiotic-decontaminated rats; Critical Care Medicine; 1990 18(5)). Bacterial translocation from the gut into the peritoneal cavity and organs was analyzed. The mesenteric lymph nodes, liver, and spleen of mice, study group of 30, were removed using sterile instruments. The organs were then homogenized in 1 ml of sterile cooked meat broth and 50 μl of organ homogenate was spread on blood agar plates to detect aerobic bacteria and Eosin Methylene blue agar plates to detect specially for E. coli. These plates were then incubated at 37° C. for 2 days. […]

[1] = system: Membrane attack complex (MAC); test: Membrane attack complex in peritoneal exudate (ELISA), chronic zymosan peritonitis; type: in vivo, mouse; conditions: 2 mg/kg, day 36
Procedure: as §3
Assembly of Membrane attack complex (MAC) results from the complex pathway starting from C5 convertase cleaving C5 to form C5a and C5b. […] The protein concentrations were carried out by means of colorimetric measurement at 450 nm on an ELISA plate reader by interpolation from a standard curve. […]

CC1=C(C)C(=O)O[C@@H]([C@@H](C)[C@@]2(O)CC[C@H]3[C@@H]4[C@@H]5O[C@@H]5[C@@]5(O)CC=CC(=O)[C@]5(C)[C@H]4CC[C@@]32C)C1 [Withanone]
Percentage TNF-α inhibition compared to LPS control (TNF-α): 53% | Inhibition of IL-6 (IL-6): 61% | Inhibition of IL-10 (IL-10): 52% | Bacterial translocation, Liver, total (gut bacteria): 3/30 | Bacterial translocation, Mesenteric Lymph Nodes, total (gut bacteria): 5 out of 30 and 5/30 | Bacterial translocation, Spleen, total (gut bacteria): 3/30 | Decrease of expression levels of MAC compared to the Zymosan control [1]: 56%
